From patent US9271957B2, “Methods of treating or preventing degenerative joint conditions, osteoarthritis, cartilage damage, and related disorders in companion animals” (HILL'S PET NUTRITION, INC., priority 2008, dated 2016)

Key:
[1] = test system: cartilage markers; assay: Serum cartilage (arthritic) markers measured in the blood by ELISA in dogs fed different foods; type: in vivo; conditions: for CPII: blood, d 0 as covariate
Experimental: Thirty (30) dogs were used to determine the effect of lipoic acid when compared to an AAFCO control food or a test food containing fish oil.
Biomarker Measurements: Serum cartilage markers were measured using ELISA based kits to determine concentrations of cartilage markers. Day 0 was used as a covariate in the analysis to adjust for baseline values.
Table 2 illustrates the change in blood level of arthritic markers in dogs after being fed a control diet compared with dogs fed a control plus fish oil and a control plus lipoic acid for 30 days and measured again at day 90.
Table 6 illustrates arthritic makers measured in blood samples for dogs after being fed a control diet compared with dogs fed a pet food including lipoic acid for 90 days.

[2] = test system: genes related to cartilage and energy metabolism; assay: Differential gene expression profile, whole blood RNA on canine 2 Affymetrix genechips; type: in vivo, dogs
From the text: A differential gene expression profile was studied between an AAFCO control food, a food containing fish oil, and a food containing lipoic acid. At a minimum of 1.3 fold change, a list of 1212 genes was generated compared to the AAFCO control and 1896 genes compared to the food containing fish oil at d 30.
RNA Extraction: Total RNAs were isolated from whole blood samples using the PAXgene RNA isolation kit. All measurements were done with the canine 2 Affymetrix genechips. For statistical analysis, all measurements were normalized with RMA. All analysis was preformed using Partek. An ANOVA t-test was performed for genes that are differentially expressed between the control and test foods were selected based on p-value cutoff 0.1, fold change >+/−1.3.
Table 4 illustrates the change in genes related to cartilage metabolism and energy metabolism in dogs after being fed a control diet compared with dogs fed a control plus lipoic acid.

[3] = test system: canine bone cells; assay: Genes related to cartilage metabolism altered by lipoic acid in canine bone cells; type: in vivo, dogs; conditions: 90 days
[4] = Plasma metabolomics; type: in vivo; conditions: relative to control fed dogs
Experimental: Metabolomics: Plasma metabolites were analyzed and were compared as fold change relative to the control fed dogs.

[5] = Body fat of dogs fed food containing lipoic acid; type: in vivo; conditions: dogs fed a food containing lipoic acid
From the text: These two markers are known to increase in dogs with osteoarthritis. […] In other words, dogs fed lipoic acid utilized available glucose more efficiently and shifted their metabolism towards mobilization of fat for energy use. […] The following tables show the difference in fat and weight as well as cartilage markers relative to treatment with lipoic acid.

[6] = test system: cartilage markers; assay: Serum cartilage (arthritic) markers measured in the blood by ELISA in dogs fed different foods; type: in vivo
[7] = vs a similar food without lipoic acid
[8] = lipoic acid vs. control, cartilage metabolism
[9] = lipoic acid vs. control, energy metabolism
[10] = lipoic acid vs. fish oil, cartilage metabolism
[11] = lipoic acid vs. fish oil, energy metabolism

O=C(O)CCCC[C@@H]1CCSS1 (racemic) [Lipoic acid, lipoic acid]
CPII ([1]; Day 30): 986.28 ng/mL | CPII ([1]; Day 90): 848.0 ng/mL | immune status markers ([1]; after 90 days): decreased | arthritic markers (i.e., CPII and CTXII) ([1]; after a 30 day treatment period): reduction | arthritic markers (i.e., CPII and CTXII) ([1]; after a 90 day period): greater reduction | carboxy-terminal crosslinked telopeptide fragment of type II collagen [1, 7]: greater decrease | type II collagen C-propeptide [1, 7]: greater decrease | PDK4 gene expression ([2]; dogs fed lipoic acid): increasing | glucose transporters gene expression ([2]; dogs fed lipoic acid): upregulation | Fold change 12-lipooxygenase [2, 8]: −1.3 | Fold change Chondroitan sulfate synthase 1 [2, 8]: 1.4 | Fold change Facilitated glucose transporter 9 [2, 8]: 1.4 | Fold change Prolyl hydroxylase alpha 1 [2, 8]: 1.4 | Fold change Prolyl hydroxylase alpha 2 [2, 8]: 1.3 | Fold change TIMP1 [2, 8]: 1.3 | Fold change chondroitan sulfate proteoglycan 2 (veriscan) [2, 8]: 1.5 | Fold change heparin sulfate N-deacetylase/N-sulfotransferase 2 [2, 8]: 1.3 | Fold change 5′ AMP alpha 1 [2, 9]: 1.3 | Fold change 5′ AMP beta 1 [2, 9]: 1.3 | Fold change 5′ AMP gamma 2 [2, 9]: 1.4 | Fold change Facilitated glucose transporter 1 [2, 9]: 1.3 | Fold change Facilitated glucose transporter 6 [2, 9]: 1.3 | Fold change Fatty acid desaturase 1 [2, 9]: 1.9 | Fold change Hexokinase 3 [2, 9]: 1.3 | Fold change PDK4 [2, 9]: 1.4 | Fold change PPAR gamma [2, 9]: 1.3 | Fold change Succinyl CoA ligase alpha [2, 9]: 1.3 | Fold change 12-lipooxygenase [2, 10]: −1.3 | Fold change ADAMTS-2 [2, 10]: −1.3 | Fold change ADAMTS-10 [2, 10]: −1.3 | Fold change ADAMTS-16 [2, 10]: −1.3 | Fold change Chondroitan sulfate synthase 1 [2, 10]: 1.3 | Fold change Facilitated glucose transporter 9 [2, 10]: 1.4 | Fold change Fibronectin 1 [2, 10]: 1.4 | Fold change Lysyl hydroxylase [2, 10]: 1.3 | Fold change MMP2 [2, 10]: −1.3 | Fold change MMP7 [2, 10]: −1.3 | Fold change N-acetylgalactosaminyl-transferase 1 [2, 10]: 1.3 | Fold change Transforming growth factor beta receptor 1 [2, 10]: 1.3 | Fold change chondroitan sulfate proteoglycan 2 (veriscan) [2, 10]: 1.5 | Fold change 5′ AMP alpha 1 [2, 11]: 1.3 | Fold change 5′ AMP beta 1 [2, 11]: 1.3 | Fold change 5′ AMP gamma 2 [2, 11]: 1.5 | Fold change Facilitated glucose transporter 1 [2, 11]: 1.3 | Fold change Facilitated glucose transporter 6 [2, 11]: 1.4 | Fold change Hexokinase 3 [2, 11]: 1.3 | Fold change PDK4 [2, 11]: 1.6 | Fold change PPAR gamma [2, 11]: 1.3 | Fold change SREBP-1 [2, 11]: −1.3 | Fold change Succinyl CoA ligase alpha [2, 11]: 1.3 | Fold change Succinyl CoA ligase beta [2, 11]: 1.3 | Fold change cAMP responsice element modulator [2, 11]: 1.3 | Directional change MMP3 (1582602_at) [3]: down regulation and Down | Directional change Prolyl 4-hydroxylase (1600479_at) [3]: up-regulation and up | Directional change TIMP2 (1582708_at) [3]: up-regulation and up | metabolite hydroxyproline in plasma [4]: reduced | Body fat [5]: lost fat | Change CPII ([6]; Day 30, without covariates): −95.10 | Change CTXII ([6]; Day 30, without covariates): −5.60 | Change CPII ([6]; Day 90, without covariates): −232.70 | Change CTXII ([6]; Day 90, without covariates): −0.59
